Results: patent US9072791B2, “Photostabilized pharmaceutical compositions” (DENKI KAGAKU KOGYO KABUSHIKI KAISHA, priority 2008, dated 2015)
Values joined by “and” are separate entries in the source; they are usually repeats but may differ in a detail not shown here. Equal entries are not always repeated. Where two headings read alike, the source gives them in different places.

Legend:
Type in all cases: physicochemical
[1] = Photostability test with additional light-shielding film LUMICOOL 1905 (Example 6); conditions: for Molecular weight (×10^4), irradiation time 0 h / Molecular weight (×10^4), irradiation time 150 h / Molecular weight (×10^4), irradiation time 300 h / Percent Conjugation (%), irradiation time 0 h / Percent Conjugation (%), irradiation time 150 h / Percent Conjugation (%), irradiation time 300 h: vial wrapped with LUMICOOL 1905;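 as to all read-outs here: molecular weight and drug conjugation percentage of the test conjugate, both determined by the method given for the first production procedure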
[2] = Photostability test in glass vials not shielded from light: gelation, molecular weight, percent conjugation of MTX (Example 4(2))
Method: Various photostabilizers (methyl p-hydroxybenzoate (methyl paraben), salicylic acid Na, thiosulfuric acid Na, thioglycolic acid Na, N-acetyltryptophan, and tryptophan) were each dissolved in a preparation buffer (0.9% NaCl containing 2 mM phosphate buffer, pH 7.4) to give a concentration of 1 or 10 mg/ml and thereafter filtered aseptically by passage through a 0.2-μm filter (Millex GV). A powder of the HA-MTX conjugate prepared in accordance with Production 1 was metered aseptically and dissolved in the filtered, photostabilizer-containing preparation buffer to give a concentration of 10 mg/mL; the thus prepared solutions were used as test samples. To prepare a control solution, the HA-MTX conjugate was dissolved in a photostabilizer-free preparation buffer at a concentration of 10 mg/mL.
The thus prepared solutions were put into glass vials not shielded from light and then irradiated with light.
The irradiation was so performed as to give an illuminance of 4000 Lux at 25° C. from a fluorescent lamp for use in a photostability test (TOSHIBA FL20S•D-EDL-D65) by means of a photostability tester (ETAC LABONIC LA110). After the lapse of specified periods (0 h, 25 h, 50 h, 100 h, 150 h, and 300 h) of irradiation, samples were taken and not only checked for gelation but also measured for the molecular weight of the HA-MTX conjugate and the percent conjugation of MTX (in the HA-MTX conjugate).
To evaluate the degree of gelation, the surface of each sample solution was pierced with a spatula and visually checked for the formation of an interface as the result of gelation. […] The apparatus used in gel filtration chromatography was equipped with OHpackSB-806HQ (Shodex) as a column, RI-71 (Shodex) as an […], and 875-UV (JASCO, detection wavelength: 304 nm) as a UV detector and analysis was conducted under the following conditions. Eluent: 50 mM sodium phosphate aqueous solution (pH 6.0); elution rate: 0.6 mL/min; column temperature: 40° C. By the above-described gel filtration chromatography, the elution times of the conjugate of interest were determined and the molecular weight of the same conjugate was determined from the relationship between the elution times and molecular weights of standard substances. As the standard substances, hyaluronic acid samples were prepared in varying molecular weights and their accurate values were calculated by the limiting viscosity method before it was used.

[3] = Fluorescing of the HA-MTX conjugate upon irradiation with light at specified wavelengths (Example 1); parameters: key: rated “+” when strong emission was observed after the irradiation; rated “−” when the emission after the irradiation was not different from the emission before the irradiation
Method: The HA-MTX conjugate obtained in Production 1 was dissolved in 0.9% NaCl containing 2 mM phosphate buffer (pH 7.3) to give a concentration of 9.9 mg/ml in terms of HA and the solution was irradiated with light at varying wavelengths (260 nm, 310 nm, 360 nm, and 405 nm) using a fluorescence detector for liquid chromatography (product of Hitachi, Ltd.; fluorescence detector of model F1050) to observe the gelation and fluorescing of the conjugate. To evaluate the gelation, the surface of the sample solution was pierced with a spatula and visually checked for the formation of an interface as the result of gelation. To observe fluorescing, the sample was irradiated with exciting light and the state of light emission from the sample was observed by direct visual checking before and after the irradiation; the result was rated “+” when strong emission was observed after the irradiation but rated “−” when the emission after the irradiation was not different from the emission before the irradiation.

[4] = Effect of photostabilizers on the excitation spectra of the HA-MTX conjugate (Example 4(1)); conditions: fluorescence at 458 nm
Method: Various photostabilizers (methyl p-hydroxybenzoate (methyl paraben), salicylic acid Na, thiosulfuric acid Na, and N-acetyltryptophan) were each dissolved in a preparation buffer (0.9% NaCl containing 2 mM phosphate buffer (pH 7.4)) to give a concentration of 9 mg/ml (but 0.9 mg/ml in the case of methyl paraben) and thereafter filtered aseptically by passage through a 0.2-μm filter (Millex GV). […] The test samples and the control were irradiated with light at 300-480 nm and the intensity of fluorescence at 458 nm was measured.

[5] = additive 1 mg/ml, 4000 Lux, 25° C., not shielded from light
[6] = additive 10 mg/ml, 4000 Lux, 25° C., not shielded from light

O=S([O-])([O-])=S.[Na+].[Na+] [Na thiosulfate, sodium thiosulfate]
Molecular weight (×10^4), irradiation time 0 h ([1]; additive 1 mg/mL): 181 ×10^4 | Molecular weight (×10^4), irradiation time 150 h ([1]; additive 1 mg/mL): 186 ×10^4 | Molecular weight (×10^4), irradiation time 300 h ([1]; additive 1 mg/mL): 180 ×10^4 | Percent Conjugation (%), irradiation time 0 h ([1]; additive 1 mg/mL): 2.3% | Percent Conjugation (%), irradiation time 150 h ([1]; additive 1 mg/mL): 2.2% | Percent Conjugation (%), irradiation time 300 h ([1]; additive 1 mg/mL): 2.2% | Molecular weight (×10^4), irradiation time 0 h ([1]; additive 10 mg/mL): 190 ×10^4 | Molecular weight (×10^4), irradiation time 150 h ([1]; additive 10 mg/mL): 188 ×10^4 | Molecular weight (×10^4), irradiation time 300 h ([1]; additive 10 mg/mL): 186 ×10^4 | Percent Conjugation (%), irradiation time 0 h ([1]; additive 10 mg/mL): 2.1% | Percent Conjugation (%), irradiation time 150 h ([1]; additive 10 mg/mL): 2.2% | Percent Conjugation (%), irradiation time 300 h ([1]; additive 10 mg/mL): 2.1% | stabilizing effects (suppressing effects on the drop in molecular weight and the drop in percent conjugation of MTX) ([1]; with light-shielding film LUMICOOL 1905): comparable to those obtained in the case where complete shielding of light was ensured by aluminum foil | Molecular weight (×10^4), irradiation time 0 h [2]: 190 ×10^4 and 181 ×10^4 | Molecular weight (×10^4), irradiation time 25 h [2]: 190 ×10^4 and 145 ×10^4 | Percent Conjugation (%) of MTX, irradiation time 0 h [2]: 2.1% and 2.3% | Percent Conjugation (%) of MTX, irradiation time 25 h [2]: 2.2% and 2.1% | Percent Conjugation (%) of MTX, irradiation time 50 h [2]: 2.3% and 1.5% | Percent Conjugation (%) of MTX, irradiation time 100 h [2]: 2.1% and 0.8% | Percent Conjugation (%) of MTX, irradiation time 150 h [2]: 2.2% and 0.6% | Percent Conjugation (%) of MTX, irradiation time 300 h [2]: 2.1% and 0.4% | suppressing drops in the molecular weight and percent conjugation [2]: considerably effective in suppressing drops in the molecular weight and percent conjugation even when the time of irradiation exceeded 100 hours

N[C@@H](Cc1c[nH]c2ccccc12)C(=O)O [Tryptophan, tryptophan]
Molecular weight (×10^4), irradiation time 0 h ([1]; additive 1 mg/mL): 188 ×10^4 | Molecular weight (×10^4), irradiation time 150 h ([1]; additive 1 mg/mL): 176 ×10^4 | Molecular weight (×10^4), irradiation time 300 h ([1]; additive 1 mg/mL): 153 ×10^4 | Percent Conjugation (%), irradiation time 0 h ([1]; additive 1 mg/mL): 2.2% | Percent Conjugation (%), irradiation time 150 h ([1]; additive 1 mg/mL): 2.2% | Percent Conjugation (%), irradiation time 300 h ([1]; additive 1 mg/mL): 2.2% | Molecular weight (×10^4), irradiation time 0 h ([1]; additive 10 mg/mL): 181 ×10^4 | Molecular weight (×10^4), irradiation time 150 h ([1]; additive 10 mg/mL): 177 ×10^4 | Molecular weight (×10^4), irradiation time 300 h ([1]; additive 10 mg/mL): 156 ×10^4 | Percent Conjugation (%), irradiation time 0 h ([1]; additive 10 mg/mL): 2.2% | Percent Conjugation (%), irradiation time 150 h ([1]; additive 10 mg/mL): 2.2% | Percent Conjugation (%), irradiation time 300 h ([1]; additive 10 mg/mL): 2.2% | suppressing drops in the molecular weight and percent conjugation ([2]; added at 1 mg/mL, not shielded from light): could suppress drops in the molecular weight and percent conjugation for irradiation periods that did not exceed about 100 hours | Molecular weight (×10^4), irradiation time 0 h [2, 5]: 188 ×10^4 | Molecular weight (×10^4), irradiation time 25 h [2, 5]: 171 ×10^4 | Molecular weight (×10^4), irradiation time 50 h [2, 5]: 138 ×10^4 | Molecular weight (×10^4), irradiation time 100 h [2, 5]: 112 ×10^4 | Molecular weight (×10^4), irradiation time 150 h [2, 5]: 83 ×10^4 | Molecular weight (×10^4), irradiation time 300 h [2, 5]: 45 ×10^4 | Percent Conjugation (%) of MTX, irradiation time 0 h [2, 5]: 2.2% | Percent Conjugation (%) of MTX, irradiation time 25 h [2, 5]: 2.2% | Percent Conjugation (%) of MTX, irradiation time 50 h [2, 5]: 2.2% | Percent Conjugation (%) of MTX, irradiation time 100 h [2, 5]: 2.2% | Percent Conjugation (%) of MTX, irradiation time 150 h [2, 5]: 2.1% | Percent Conjugation (%) of MTX, irradiation time 300 h [2, 5]: 2.2% | Molecular weight (×10^4), irradiation time 0 h [2, 6]: 181 ×10^4 | Molecular weight (×10^4), irradiation time 25 h [2, 6]: 175 ×10^4 | Molecular weight (×10^4), irradiation time 50 h [2, 6]: 164 ×10^4 | Molecular weight (×10^4), irradiation time 100 h [2, 6]: 118 ×10^4 | Molecular weight (×10^4), irradiation time 150 h [2, 6]: 110 ×10^4 | Molecular weight (×10^4), irradiation time 300 h [2, 6]: 70 ×10^4 | Percent Conjugation (%) of MTX, irradiation time 0 h [2, 6]: 2.2% | Percent Conjugation (%) of MTX, irradiation time 25 h [2, 6]: 2.3% | Percent Conjugation (%) of MTX, irradiation time 50 h [2, 6]: 2.2% | Percent Conjugation (%) of MTX, irradiation time 100 h [2, 6]: 2.2% | Percent Conjugation (%) of MTX, irradiation time 150 h [2, 6]: 2.2% | Percent Conjugation (%) of MTX, irradiation time 300 h [2, 6]: 2.2%

MTX-α-PhePhe-NHC2H4NH-HA [HA-MTX conjugate]
Fluorescence ([3]; irradiation at 260 nm): − | Fluorescence ([3]; irradiation at 310 nm): − | Fluorescence ([3]; irradiation at 360 nm): + | Fluorescence ([3]; irradiation at 405 nm): + | main excitation wavelengths ([4]; control solution 1 mg/ml, no photostabilizer): 320-430 nm | excitation maximum wavelength (Ex λmax) [4]: 380 nm
